The compounds below were run against human Fpn-GFP fusion protein (Homo sapiens, UniProt Q9NP59) (assay: cell-based). Details: not given.
From the text: Growing HEK-293 #354 cells in doxycycline containing media induced expression of human Fpn-GFP fusion protein on the cell surface.

Sequence of human Fpn-GFP fusion protein (Q9NP59 whole entry, the tested form may be a part): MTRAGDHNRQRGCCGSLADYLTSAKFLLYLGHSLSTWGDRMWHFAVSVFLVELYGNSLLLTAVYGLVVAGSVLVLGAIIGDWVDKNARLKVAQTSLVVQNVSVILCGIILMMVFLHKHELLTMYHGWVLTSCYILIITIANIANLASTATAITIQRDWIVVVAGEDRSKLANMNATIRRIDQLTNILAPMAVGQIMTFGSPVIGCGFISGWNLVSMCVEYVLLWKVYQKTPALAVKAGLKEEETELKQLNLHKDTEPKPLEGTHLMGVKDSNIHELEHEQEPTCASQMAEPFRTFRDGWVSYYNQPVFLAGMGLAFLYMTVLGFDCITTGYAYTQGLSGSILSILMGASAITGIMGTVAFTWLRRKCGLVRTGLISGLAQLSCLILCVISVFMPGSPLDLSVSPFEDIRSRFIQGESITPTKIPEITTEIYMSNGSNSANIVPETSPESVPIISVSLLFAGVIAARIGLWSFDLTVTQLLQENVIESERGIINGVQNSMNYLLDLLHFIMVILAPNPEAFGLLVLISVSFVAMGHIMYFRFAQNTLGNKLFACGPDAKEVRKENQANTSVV

| Compound | EC50 |
| --- | --- |
| CC[C@H](C)[C@@H]1NC(=O)[C@@H](NC(=O)[C@@H](NC(=O)[C@@H]2CCCN2C(=O)[C@H](Cc2ccccc2)NC(=O)[C@H](Cc2c[nH]cn2)NC(=O)[C@@H](NC(=O)[C@@H](N)CC(=O)O)[C@@H](C)O)[C@@H](C)CC)CSSC[C@@H](C(=O)N[C@@H](CCCCN)C(=O)N[C@H](C(=O)O)[C@@H](C)O)NC(=O)[C@@H]2CSSC[C@@H]3NC(=O)[C@@H]4CSSC[C@H](NC(=O)[C@H](Cc5ccccc5)NC1=O)C(=O)N[C@@H](CSSC[C@H](NC(=O)[C@H](CCCCN)NC(=O)[C@H](CO)NC(=O)[C@H](CCCNC(=N)N)NC(=O)[C@H](Cc1c[nH]cn1)NC3=O)C(=O)NCC(=O)N[C@@H](CCSC)C(=O)N2)C(=O)NCC(=O)N4 [hepcidin] | ~4 nM |

What follows are compounds tested against T1, ferroportin (Fpn) (Mus musculus, UniProt Q9JHI9) (assay: Hepcidin Internalization Assay (J774)). Details: J774 cells, TMR-hepcidin 25 nM, 2 hours; read-out: IC 50, average (AVE) of multiple measurements, hepcidin internalization assay.
T1 construct: endogenous in cells; host or cells: J774 mouse macrophage cell line, induced with Fe(III)NTA
T1 sequence (Q9JHI9 1-570): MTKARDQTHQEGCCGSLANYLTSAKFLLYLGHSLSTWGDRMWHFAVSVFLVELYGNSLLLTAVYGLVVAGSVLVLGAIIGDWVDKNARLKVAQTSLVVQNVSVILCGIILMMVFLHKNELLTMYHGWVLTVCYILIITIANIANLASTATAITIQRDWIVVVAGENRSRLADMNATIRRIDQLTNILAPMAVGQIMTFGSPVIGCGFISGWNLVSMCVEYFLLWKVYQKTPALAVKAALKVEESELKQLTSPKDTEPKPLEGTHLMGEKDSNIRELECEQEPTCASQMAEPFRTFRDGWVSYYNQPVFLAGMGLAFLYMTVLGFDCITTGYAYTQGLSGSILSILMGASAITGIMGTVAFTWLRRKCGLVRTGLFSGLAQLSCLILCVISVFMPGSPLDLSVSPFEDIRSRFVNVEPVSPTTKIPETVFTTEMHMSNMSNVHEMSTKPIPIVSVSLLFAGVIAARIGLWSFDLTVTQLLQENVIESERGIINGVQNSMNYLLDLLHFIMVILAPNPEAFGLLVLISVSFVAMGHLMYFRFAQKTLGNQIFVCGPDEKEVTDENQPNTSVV
Assay type: cell-based
From the text: This cellular assay allows quantification of the binding of hepcidin to ferroportin (Fpn) through microscopic detection of internalization of a fluorescently labeled hepcidin into J774 cells. […] Binding of hepcidin to Fpn triggers internalization and degradation of both hepcidin and Fpn. […] Therefore, microscopic detection of cell-associated TMR fluorescence is a measure of hepcidin binding to Fpn and internalization of hepcidin and Fpn. If TMR-hepcidin is prevented from binding to Fpn, cellular TMR fluorescence remains low (Dürrenberger et al, 2013). The effect of small molecular weight Fpn inhibitor compounds in this assay was evaluated in vitro as described below. […] Cat. 655090) and grown at 37° C. with 5% CO2. After overnight incubation, cells were washed 3 times with pre-warmed DMEM w/o phenol red, 30 μl/well of DMEM w/o phenol red was added after the final wash and 10 μl/well of dilution series of test compounds were added in triplicates. […] Cells were incubated in a total volume of 50 μl at 37° C. with 5% CO2 for 2 hours, then Hoechst 33342 dye was added to a final concentration of 0.5 μg/ml to stain nuclei and further incubated for 10 min. at 37° C. with 5% CO2. […] After removal of the paraformaldehyde solution, cells were washed 3 times with PBS leaving 100 μl per well and the plates were sealed with foil plate seal. […] The acquired image data was analysed with the […] analysis software. […] IC50 values were calculated with the Sum(Mean) raw data using “log(inhibitor) vs. response” curve fitting of Prism 5 software (GraphPad Software Inc., version 5.02). For each data set the fit of the “log(inhibitor) vs. response (three parameters)” model was compared to the fit of the “log(inhibitor) vs. response-Variable slope (four parameters)” model and the IC50 data of the preferred model was used.

| Compound | IC50 |
| --- | --- |
| COc1cccnc1CNC(=O)c1coc(CCNCCc2nc3cc(-n4cccc4)ccc3[nH]2)n1 [compound 54] | 37 nM |
| O=C(NCc1ncccc1C(F)(F)F)c1coc(CCNCCc2nc3cc(-n4cccc4)ccc3[nH]2)n1 [compound 58] | 171 nM |
| O=C(NCc1ncccc1F)c1coc(CCNCCc2nc3c(-c4ccncc4)cccc3[nH]2)n1 [compound 20] | 189 nM |
| O=C(NCc1ncccc1Cl)c1coc(CCNCCc2nc3cc(-n4cccc4)ccc3[nH]2)n1 [compound 59] | 28 nM |
| O=C(NCc1ncccc1F)c1coc(CCNCCc2nc3cc(-n4cccc4)ccc3[nH]2)n1 [compound 32] | 27 nM |
| COc1cccnc1CNC(=O)c1coc(CCNCCc2nc3c(ccc4ccccc43)[nH]2)n1 [compound 15] | 33 nM |
| Cc1cccnc1CNC(=O)c1coc(CCNCCc2nc3cc(-c4ccccc4)ccc3[nH]2)n1 [compound 52] | 26 nM |

Results, then the compound that gave them:

| IC50 | Compound |
| --- | --- |
| 26 nM | COc1cccc(-c2ccc3[nH]c(CCNCCc4nc(C(=O)NCc5ccccn5)co4)nc3c2)c1 [compound 70] |
| 18 nM | COc1ccccc1-c1ccc2[nH]c(CCNCCc3nc(C(=O)NCc4ncccc4C)co3)nc2c1 [compound 49] |
| 16 nM | COc1cccnc1CNC(=O)c1coc(CCNCCc2nc3cc(-c4ccccc4)ccc3[nH]2)n1 [compound 53] |
| 12 nM | O=C(NCc1ncccc1F)c1coc(CCNCCc2nc3c4c(ccc3[nH]2)CCCC4)n1 [compound 39] |
| 6 nM | COc1cccc(-c2ccc3[nH]c(CCNCCc4nc(C(=O)NCc5ncccc5F)co4)nc3c2)c1OC [compound 83] |
| 6 nM | CCc1ccccc1-c1ccc2[nH]c(CCNCCc3nc(C(=O)NCc4ncccc4F)co3)nc2c1 [compound 71] |
| 6 nM | COc1ccccc1-c1ccc2[nH]c(CCNCCc3nc(C(=O)NCc4ncccc4F)co3)nc2c1 [compound 45] |
| 6 nM | O=C(NCc1ncccc1F)c1coc(CCNCCc2nc3cc(-c4ccccc4)ccc3[nH]2)n1 [compound 19] |
| 3 nM | CN(C)C(=O)c1cccc(C#Cc2ccc3[nH]c(CCNCCc4nc(C(=O)NCc5ncccc5F)co4)nc3c2)c1 [compound 76] |
| 2 nM | O=C(NCc1ncccc1Cl)c1coc(CCNCCc2nc3cc4c(cc3[nH]2)OCCO4)n1 [compound 55] |
| 2 nM | O=C(NCc1ncccc1F)c1coc(CCNCCc2nc3cc(CCc4ccccc4)ccc3[nH]2)n1 [compound 75] |

These compounds were tested against human Fpn (Homo sapiens, UniProt Q9NP59) (assay: biochemical). Details: not given.
Experimental: This biophysical assay was developed to confirm inhibition of hepcidin binding to ferroportin (Fpn) more directly. Incubation of TMR-hepcidin with purified human Fpn isolated from Pichia pastoris yeast cells expressing human Fpn with a C-terminal FLAG affinity tag (Bonaccorsi di Patti, 2014) leads to increased fluorescence polarization (FP) of the TMR-hepcidin ligand.

Sequence of human Fpn (Q9NP59 whole entry): as the sequence (Q9NP59 whole entry, the tested form may be a part) above

| Compound | IC50 |
| --- | --- |
| CC[C@H](C)[C@@H]1NC(=O)[C@@H](NC(=O)[C@@H](NC(=O)[C@@H]2CCCN2C(=O)[C@H](Cc2ccccc2)NC(=O)[C@H](Cc2c[nH]cn2)NC(=O)[C@@H](NC(=O)[C@@H](N)CC(=O)O)[C@@H](C)O)[C@@H](C)CC)CSSC[C@@H](C(=O)N[C@@H](CCCCN)C(=O)N[C@H](C(=O)O)[C@@H](C)O)NC(=O)[C@@H]2CSSC[C@@H]3NC(=O)[C@@H]4CSSC[C@H](NC(=O)[C@H](Cc5ccccc5)NC1=O)C(=O)N[C@@H](CSSC[C@H](NC(=O)[C@H](CCCCN)NC(=O)[C@H](CO)NC(=O)[C@H](CCCNC(=N)N)NC(=O)[C@H](Cc1c[nH]cn1)NC3=O)C(=O)NCC(=O)N[C@@H](CCSC)C(=O)N2)C(=O)NCC(=O)N4 [hepcidin] | ~370 nM |

— patent US20240239780A1, “MODIFIED FERROPORTIN INHIBITORS” (Vifor (International) AG, priority 2021, published 2024)
